Results from the supplement of paper PMC10307832.

What was measured:
Experiment in all cases: relative viability (nuclei count vs DMSO), 5 days (fraction); higher = more cells survive
NCI-H661 = tested on: NCI-H661
Outline: (§1)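 For relative viability, nuclei counts in treated wells were divided by those in vehicle wells. Lung cancer cell lines had been pin-tool dosed in 1536-well plates the day after seeding and cultured for 5 days, then fixed and stained in one step (final 0.05% Triton X-100, 1% formaldehyde, 1 ug/ml Hoechst) and imaged at 4×. Doses were one drug alone or a fixed anchor-drug dose plus five library-drug doses (not always all listed) in √10 steps, and values are duplicate-plate medians.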

NCI-H522 = tested on: NCI-H522
Outline: as §1

NCI-H2342 = tested on: NCI-H2342
Outline: as §1

NCI-H1648 = tested on: NCI-H1648
Outline: as §1

HCC-78 = tested on: HCC-78
Outline: as §1

NCI-H2009 = tested on: NCI-H2009
Outline: as §1

NCI-H1623 = tested on: NCI-H1623
Outline: as §1

NCI-H460 = tested on: NCI-H460
Outline: as §1

A549 = tested on: A549
Outline: as §1

Calu-6 = tested on: Calu-6
Outline: as §1

NCI-H1703 = tested on: NCI-H1703
Outline: as §1

EBC-1 = tested on: EBC-1
Outline: as §1

NCI-H1299 = tested on: NCI-H1299
Outline: as §1

IA-LM = tested on: IA-LM
Outline: as §1

O=c1cc(N2CCOCC2)oc2c(-c3cccc4c3sc3ccccc34)cccc12 + Cc1cc(Nc2cc(N3CCN(C)CC3)nc(Sc3ccc(NC(=O)C4CC4)cc3)n2)n[nH]1 [Tozasertib] (partner 0.1 µM)
relative viability (NCI-H661; first compound 0.01 µM): 0.367 | relative viability (NCI-H661; first compound 0.03162 µM): 0.356 | relative viability (NCI-H661; first compound 0.1 µM): 0.335 | relative viability (NCI-H661; first compound 0.3162 µM): 0.36 | relative viability (NCI-H661; first compound 1 µM): 0.362 | relative viability (NCI-H522; first compound 0.01 µM): 0.548 | relative viability (NCI-H522; first compound 0.03162 µM): 0.607 | relative viability (NCI-H522; first compound 0.1 µM): 0.594 | relative viability (NCI-H522; first compound 0.3162 µM): 0.551 | relative viability (NCI-H522; first compound 1 µM): 0.61 | relative viability (NCI-H2342; first compound 0.01 µM): 0.643 | relative viability (NCI-H2342; first compound 0.03162 µM): 0.504 | relative viability (NCI-H2342; first compound 0.1 µM): 0.535 | relative viability (NCI-H2342; first compound 0.3162 µM): 0.555 | relative viability (NCI-H2342; first compound 1 µM): 0.469 | relative viability (NCI-H1648; first compound 0.01 µM): 0.503 | relative viability (NCI-H1648; first compound 0.03162 µM): 0.501 | relative viability (NCI-H1648; first compound 0.1 µM): 0.547 | relative viability (NCI-H1648; first compound 0.3162 µM): 0.621 | relative viability (NCI-H1648; first compound 1 µM): 0.504 | relative viability (HCC-78; first compound 0.01 µM): 0.417 | relative viability (HCC-78; first compound 0.03162 µM): 0.359 | relative viability (HCC-78; first compound 0.1 µM): 0.417 | relative viability (HCC-78; first compound 0.3162 µM): 0.41 | relative viability (HCC-78; first compound 1 µM): 0.452 | relative viability (NCI-H2009; first compound 0.01 µM): 0.747 | relative viability (NCI-H2009; first compound 0.03162 µM): 0.704 | relative viability (NCI-H2009; first compound 0.1 µM): 0.8 | relative viability (NCI-H2009; first compound 0.3162 µM): 0.708 | relative viability (NCI-H2009; first compound 1 µM): 0.708 | relative viability (NCI-H1623; first compound 0.01 µM): 0.472 | relative viability (NCI-H1623; first compound 0.03162 µM): 0.4 | relative viability (NCI-H1623; first compound 0.1 µM): 0.394 | relative viability (NCI-H1623; first compound 0.3162 µM): 0.411 | relative viability (NCI-H1623; first compound 1 µM): 0.343 | relative viability (NCI-H460; first compound 0.01 µM): 0.342 | relative viability (NCI-H460; first compound 0.03162 µM): 0.479 | relative viability (NCI-H460; first compound 0.1 µM): 0.511 | relative viability (NCI-H460; first compound 0.3162 µM): 0.417 | relative viability (NCI-H460; first compound 1 µM): 0.465

COc1nc(C)cnc1NS(=O)(=O)c1cccnc1-c1ccc(-c2nnco2)cc1 [Zibotentan] + COc1cc2c(Oc3ccc(NC(=O)C4(C(=O)Nc5ccc(F)cc5)CC4)cc3F)ccnc2cc1OCCCN1CCOCC1 [Foretinib] (partner 0.25 µM)
relative viability (NCI-H661; first compound 0.08 µM): 1.01 | relative viability (NCI-H661; first compound 0.253 µM): 0.969 | relative viability (NCI-H661; first compound 0.8 µM): 0.995 | relative viability (NCI-H661; first compound 2.53 µM): 1.01 | relative viability (A549; first compound 0.08 µM): 1.02 | relative viability (A549; first compound 0.253 µM): 0.916 | relative viability (A549; first compound 0.8 µM): 1.1 | relative viability (A549; first compound 2.53 µM): 1.1 | relative viability (Calu-6; first compound 0.08 µM): 0.811 | relative viability (Calu-6; first compound 0.253 µM): 0.947 | relative viability (Calu-6; first compound 0.8 µM): 0.849 | relative viability (Calu-6; first compound 2.53 µM): 0.895 | relative viability (NCI-H2342; first compound 0.08 µM): 1.08 | relative viability (NCI-H2342; first compound 0.253 µM): 0.954 | relative viability (NCI-H2342; first compound 0.8 µM): 1.03 | relative viability (NCI-H2342; first compound 2.53 µM): 1.13 | relative viability (NCI-H1703; first compound 0.08 µM): 0.422 | relative viability (NCI-H1703; first compound 0.253 µM): 0.347 | relative viability (NCI-H1703; first compound 0.8 µM): 0.395 | relative viability (NCI-H1703; first compound 2.53 µM): 0.314 | relative viability (HCC-78; first compound 0.08 µM): 0.535 | relative viability (HCC-78; first compound 0.253 µM): 0.484 | relative viability (HCC-78; first compound 0.8 µM): 0.588 | relative viability (HCC-78; first compound 2.53 µM): 0.518 | relative viability (NCI-H2009; first compound 0.08 µM): 1.25 | relative viability (NCI-H2009; first compound 0.253 µM): 1.24 | relative viability (NCI-H2009; first compound 0.8 µM): 1.28 | relative viability (NCI-H2009; first compound 2.53 µM): 1.35 | relative viability (NCI-H1623; first compound 0.08 µM): 0.84 | relative viability (NCI-H1623; first compound 0.253 µM): 0.765 | relative viability (NCI-H1623; first compound 0.8 µM): 0.855 | relative viability (NCI-H1623; first compound 2.53 µM): 0.771 | relative viability (EBC-1; first compound 0.08 µM): 0.0991 | relative viability (EBC-1; first compound 0.253 µM): 0.0961 | relative viability (EBC-1; first compound 0.8 µM): 0.103 | relative viability (EBC-1; first compound 2.53 µM): 0.113 | relative viability (NCI-H1299; first compound 0.08 µM): 1.11 | relative viability (NCI-H1299; first compound 0.253 µM): 1.05 | relative viability (NCI-H1299; first compound 0.8 µM): 1.05 | relative viability (NCI-H1299; first compound 2.53 µM): 1.13 | relative viability (IA-LM; first compound 0.08 µM): 1.06 | relative viability (IA-LM; first compound 0.253 µM): 1.15 | relative viability (IA-LM; first compound 0.8 µM): 1.09 | relative viability (IA-LM; first compound 2.53 µM): 1.3 | relative viability (NCI-H460; first compound 0.08 µM): 1.09 | relative viability (NCI-H460; first compound 0.253 µM): 0.827 | relative viability (NCI-H460; first compound 0.8 µM): 0.986 | relative viability (NCI-H460; first compound 2.53 µM): 1.05

CCN(CC)CCCCNc1ncc2cc(-c3cc(OC)cc(OC)c3)c(NC(=O)NC(C)(C)C)nc2n1 + COc1cccc2cc(-c3nc([C@H]4CC[C@H](C(=O)O)CC4)n4ncnc(N)c34)[nH]c12 [OSI-027] (partner 0.5 µM)
relative viability (NCI-H661; first compound 0.01 µM): 0.784 | relative viability (NCI-H661; first compound 0.03162 µM): 0.727 | relative viability (NCI-H661; first compound 0.1 µM): 0.779 | relative viability (NCI-H661; first compound 0.3162 µM): 0.743 | relative viability (NCI-H661; first compound 1 µM): 0.48 | relative viability (NCI-H522; first compound 0.01 µM): 0.639 | relative viability (NCI-H522; first compound 0.03162 µM): 0.625 | relative viability (NCI-H522; first compound 0.1 µM): 0.676 | relative viability (NCI-H522; first compound 0.3162 µM): 0.674 | relative viability (NCI-H522; first compound 1 µM): 0.698 | relative viability (NCI-H2342; first compound 0.01 µM): 0.676 | relative viability (NCI-H2342; first compound 0.03162 µM): 0.615 | relative viability (NCI-H2342; first compound 0.1 µM): 0.622 | relative viability (NCI-H2342; first compound 0.3162 µM): 0.701 | relative viability (NCI-H2342; first compound 1 µM): 0.568 | relative viability (NCI-H1648; first compound 0.01 µM): 0.311 | relative viability (NCI-H1648; first compound 0.03162 µM): 0.228 | relative viability (NCI-H1648; first compound 0.1 µM): 0.26 | relative viability (NCI-H1648; first compound 0.3162 µM): 0.24 | relative viability (NCI-H1648; first compound 1 µM): 0.243 | relative viability (HCC-78; first compound 0.01 µM): 0.36 | relative viability (HCC-78; first compound 0.03162 µM): 0.381 | relative viability (HCC-78; first compound 0.1 µM): 0.468 | relative viability (HCC-78; first compound 0.3162 µM): 0.349 | relative viability (HCC-78; first compound 1 µM): 0.357 | relative viability (NCI-H2009; first compound 0.01 µM): 0.678 | relative viability (NCI-H2009; first compound 0.03162 µM): 0.669 | relative viability (NCI-H2009; first compound 0.1 µM): 0.642 | relative viability (NCI-H2009; first compound 0.3162 µM): 0.675 | relative viability (NCI-H2009; first compound 1 µM): 0.604 | relative viability (NCI-H1623; first compound 0.01 µM): 0.419 | relative viability (NCI-H1623; first compound 0.03162 µM): 0.385 | relative viability (NCI-H1623; first compound 0.1 µM): 0.381 | relative viability (NCI-H1623; first compound 0.3162 µM): 0.469 | relative viability (NCI-H1623; first compound 1 µM): 0.383 | relative viability (NCI-H460; first compound 0.01 µM): 0.879 | relative viability (NCI-H460; first compound 0.03162 µM): 0.677 | relative viability (NCI-H460; first compound 0.1 µM): 0.859 | relative viability (NCI-H460; first compound 0.3162 µM): 0.815 | relative viability (NCI-H460; first compound 1 µM): 0.291
